# US7473790B2 (Pfizer Inc., priority 2003, dated 2009)
# Target: T1, HCV polymerase (Hepatitis C virus genotype 1b, UniProt P26663)
# T1 construct: 2.5 pmoles (0.15 μg) HCV polymerase protein in a final volume of 75 μL
# Experiment: HCV polymerase primer/template-directed transcription assay (32P-GTP incorporation, filter binding)
# Type: biochemical
# Settings: @ 20 uM compound; given where IC50 was impractical to calculate; read-out: percent inhibition
# Procedure, shortened: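 IC50s come from triplicate cpm, refit with an enzyme-concentration (30 nM) correction when under 200 nM. Reactions ran 30 min at 30° C in Tris pH 7.2 with MgCl2, 1 μM GTP spiked with α-32P-GTP, biotin-dG12 primer and poly(rC)300 template, with 1% DMSO. Incorporated label was collected on DE filtermats and counted.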
# T1 sequence (P26663 2420-3010): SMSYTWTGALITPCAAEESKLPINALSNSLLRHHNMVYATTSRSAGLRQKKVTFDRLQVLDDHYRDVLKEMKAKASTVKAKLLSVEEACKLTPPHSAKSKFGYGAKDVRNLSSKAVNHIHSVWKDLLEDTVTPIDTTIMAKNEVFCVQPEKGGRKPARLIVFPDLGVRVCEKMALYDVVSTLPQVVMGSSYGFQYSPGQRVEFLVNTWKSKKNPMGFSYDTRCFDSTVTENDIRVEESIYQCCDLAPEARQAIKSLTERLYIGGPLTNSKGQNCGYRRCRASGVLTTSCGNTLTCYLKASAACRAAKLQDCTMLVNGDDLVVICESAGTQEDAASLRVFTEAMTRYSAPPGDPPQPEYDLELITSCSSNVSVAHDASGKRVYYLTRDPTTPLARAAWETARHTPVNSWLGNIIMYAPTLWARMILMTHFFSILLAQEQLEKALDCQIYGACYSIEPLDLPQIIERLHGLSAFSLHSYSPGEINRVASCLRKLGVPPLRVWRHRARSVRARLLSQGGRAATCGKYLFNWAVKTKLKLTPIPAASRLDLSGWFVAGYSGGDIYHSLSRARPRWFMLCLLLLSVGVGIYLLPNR
row,SMILES,inhibition at 20 µM
1,"CCC1(CCc2ccc(OC)cc2)CC(O)=C(Sc2nc3cc(Cl)ccc3n2C(C)C)C(=O)O1 (stereo not drawn) [C(15), 3-(5-Chloro-1-isopropyl-1H-benzoimidazol-2-ylsulfanyl)-6-ethyl-4-hydroxy-6-[2-(4-methoxy-phenyl)-ethyl]-5,6-dihydro-pyran-2-one]",22%
2,"CCC1(CCc2ccc(OC)cc2)CC(O)=C(Sc2nc3nc(C)cc(C)n3n2)C(=O)O1 (stereo not drawn) [C(16), 3-(5,7-Dimethyl-[1,2,4]triazolo[1,5-a]pyrimidin-2-ylsulfanyl)-6-ethyl-4-hydroxy-6-[2-(4-methoxy-phenyl)-ethyl]-5,6-dihydro-pyran-2-one]",8%

# Same assay, conditions: @ 50 uM compound; given where IC50 was impractical to calculate; read-out: percent inhibition
row,SMILES,inhibition at 50 µM
1,"Cc1cc(C)n2nc(SC3=C(O)CC(C)(C4CCCC4)OC3=O)nc2n1 (stereo not drawn) [C(17), 6-Cyclopentyl-3-(5,7-dimethyl-[1,2,4]triazolo[1,5-a]pyrimidin-2-ylsulfanyl)-4-hydroxy-6-methyl-5,6-dihydro-pyran-2-one]",2%
2,"CCC1(CC)CC(O)=C(Sc2nc3nc(C)cc(C)n3n2)C(=O)O1 [C(18), 3-(5,7-Dimethyl-[1,2,4]triazolo[1,5-a]pyrimidin-2-ylsulfanyl)-6,6-diethyl-4-hydroxy-5,6-dihydro-pyran-2-one]",2%
3,"CCC1(CC)CC(O)=C(Sc2nc3cc(Cl)ccc3n2C(C)C)C(=O)O1 [C(19), 3-(5-Chloro-1-isopropyl-1H-benzoimidazol-2-ylsulfanyl)-6,6-diethyl-4-hydroxy-5,6-dihydro-pyran-2-one]",22%
4,"CCC1(C)CC(O)=C(Sc2nc3cc(Cl)ccc3n2C(C)C)C(=O)O1 (stereo not drawn) [C(20), 3-(5-Chloro-1-isopropyl-1H-benzoimidazol-2-ylsulfanyl)-6-ethyl-4-hydroxy-6-methyl-5,6-dihydro-pyran-2-one]",11%
5,"CCC1(C)CC(O)=C(Sc2nc3nc(C)cc(C)n3n2)C(=O)O1 (stereo not drawn) [C(21), 3-(5,7-Dimethyl-[1,2,4]triazolo[1,5-a]pyrimidin-2-ylsulfanyl)-6-ethyl-4-hydroxy-6-methyl-5,6-dihydro-pyran-2-one]",12%

# Same assay, conditions: recombinant HCV polymerase; 30 minutes at 30° C.; concentration giving 50% inhibition of polymerase-directed transcription; read-out: IC50
row,SMILES,IC50
1,"CC(C)Oc1ccc(CCC2(C3CCCC3)CC(O)=C(Sc3ccc(O)cc3)C(=O)O2)cc1F (stereo not drawn) [C(08), 6-Cyclopentyl-6-[2-(3-fluoro-4-isopropoxy-phenyl)-ethyl]-4-hydroxy-3-(4-hydroxy-phenylsulfanyl)-5,6-dihydro-pyran-2-one]",0.31 µM
2,"Cc1nnc(SC2=C(O)CC(CCc3ccc(OC(C)C)c(F)c3)(C3CCCC3)OC2=O)s1 (stereo not drawn) [C(09), 6-Cyclopentyl-6-[2-(3-fluoro-4-isopropoxy-phenyl)-ethyl]-4-hydroxy-3-(5-methyl-[1,3,4]thiadiazol-2-ylsulfanyl)-5,6-dihydro-pyran-2-one]",0.326 µM
3,"COC(=O)c1nnc(SC2=C(O)CC(CCc3ccc(OC(C)C)c(F)c3)(C3CCCC3)OC2=O)n1C (stereo not drawn) [C(10), 5-{6-Cyclopentyl-6-[2-(3-fluoro-4-isopropoxy-phenyl)-ethyl]-4-hydroxy-2-oxo-5,6-dihydro-2H-pyran-3-ylsulfanyl}-4-methyl-4H-[1,2,4]triazole-3-carboxylic acid methyl ester]",0.016 µM
4,"CC(C)Oc1ccc(CCC2(C3CCCC3)CC(O)=C(Sc3ncccn3)C(=O)O2)cc1F (stereo not drawn) [C(11), 6-Cyclopentyl-6-[2-(3-fluoro-4-isopropoxy-phenyl)-ethyl]-4-hydroxy-3-(pyrimidin-2-ylsulfanyl)-5,6-dihydro-pyran-2-one]",0.19 µM
5,"CC(C)Oc1ccc(CCC2(C3CCCC3)CC(O)=C(Sc3nnc(O)n3C(C)C)C(=O)O2)cc1F (stereo not drawn) [C(12), 6-Cyclopentyl-6-[2-(3-fluoro-4-isopropoxy-phenyl)-ethyl]-4-hydroxy-3-(5-hydroxy-4-isopropyl-4H-[1,2,4]triazol-3-ylsulfanyl)-5,6-dihydro-pyran-2-one]",0.082 µM
6,"Cc1cc(C)n2nc(SC3=C(O)CC(CCc4ccc(-c5c(C)noc5C)cc4)(C4CCCC4)OC3=O)nc2n1 (stereo not drawn) [C(13), 6-Cyclopentyl-6-{2-[4-(3,5-dimethyl-isoxazol-4-yl)-phenyl]-ethyl}-3-(5,7-dimethyl-[1,2,4]triazolo[1,5-a]pyrimidin-2-ylsulfanyl)-4-hydroxy-5,6-dihydro-pyran-2-one]",0.016 µM
7,"Cc1noc(C)c1-c1ccc(CCC2(C3CCCC3)CC(O)=C(Sc3nc4cc(Cl)ccc4n3C)C(=O)O2)cc1 (stereo not drawn) [C(14), 3-(5-Chloro-1-methyl-1H-benzoimidazol-2-ylsulfanyl)-6-cyclopentyl-6-{2-[4-(3,5-dimethyl-isoxazol-4-yl)-phenyl]-ethyl}-4-hydroxy-5,6-dihydro-pyran-2-one]",0.014 µM
8,"COc1ccc(CCC2(C3CCCC3)CC(O)=C(Sc3nnc(-c4ccccc4)[nH]3)C(=O)O2)cc1Cl (stereo not drawn) [C(22), 6-[2-(3-Chloro-4-methoxy-phenyl)-ethyl]-6-cyclopentyl-3-(5-phenyl-4H-[1,2,4]triazol-3-ylsulfanyl)-dihydro-pyran-2,4-dione]",0.068 µM
9,"COc1ccc(CCC2(C3CCCC3)CC(O)=C(Sc3nnc(-c4ccc(O)cc4)[nH]3)C(=O)O2)cc1Cl (stereo not drawn) [C(23), 6-[2-(3-Chloro-4-methoxy-phenyl)-ethyl]-6-cyclopentyl-3-[5-(4-hydroxy-phenyl)-4H-[1,2,4]triazol-3-ylsulfanyl]-dihydro-pyran-2,4-dione]",0.05 µM
10,"CC(C)Oc1ccc(CCC2(C3CCCC3)CC(O)=C(Sc3nnc(-c4ccccc4)[nH]3)C(=O)O2)cc1F (stereo not drawn) [C(24), 6-Cyclopentyl-6-[2-(3-fluoro-4-isopropoxy-phenyl)-ethyl]-4-hydroxy-3-(5-phenyl-4H-[1,2,4]triazol-3-ylsulfanyl)-5,6-dihydro-pyran-2-one]",0.051 µM
11,"CC(C)Oc1ccc(CCC2(C3CCCC3)CC(O)=C(Sc3nc4cc(Cl)ccc4n3C(C)C)C(=O)O2)cc1Cl (stereo not drawn) [C(25), 6-[2-(3-Chloro-4-isopropoxy-phenyl)-ethyl]-3-(5-chloro-1-isopropyl-1H-benzoimidazol-2-ylsulfanyl)-6-cyclopentyl-4-hydroxy-5,6-dihydro-pyran-2-one]",0.02 µM
12,"CC(C)Oc1ccc(CCC2(C3CCCC3)CC(O)=C(Sc3nc4cc(Cl)ccc4[nH]3)C(=O)O2)cc1Cl (stereo not drawn) [C(26), 3-(5-Chloro-1H-benzoimidazol-2-ylsulfanyl)-6-[2-(3-chloro-4-isopropoxy-phenyl)-ethyl]-6-cyclopentyl-4-hydroxy-5,6-dihydro-pyran-2-one]",0.13 µM
13,"O=C1OC(CCC2CCCCC2)(C2CCCC2)CC(O)=C1Sc1nnc(-c2ccncc2)[nH]1 (stereo not drawn) [C(27), 6-(2-Cyclohexyl-ethyl)-6-cyclopentyl-4-hydroxy-3-(5-pyridin-4-yl-4H-[1,2,4]triazol-3-ylsulfanyl)-5,6-dihydro-pyran-2-one]",2.5 µM
14,"O=C1OC(CCC2CCCC2)(C2CCCC2)CC(O)=C1Sc1nnc(-c2ccncc2)[nH]1 (stereo not drawn) [C(28), 6-Cyclopentyl-6-(2-cyclopentyl-ethyl)-4-hydroxy-3-(5-pyridin-4-yl-4H-[1,2,4]triazol-3-ylsulfanyl)-5,6-dihydro-pyran-2-one]",8 µM
15,"CC(C)n1c(SC2=C(O)CC(CCC3CCCC3)(C3CCCC3)OC2=O)nc2cc(Cl)ccc21 (stereo not drawn) [C(29), 3-(5-Chloro-1-isopropyl-1H-benzoimidazol-2-ylsulfanyl)-6-cyclopentyl-6-(2-cyclopentyl-ethyl)-4-hydroxy-5,6-dihydro-pyran-2-one]",9.3 µM
16,"O=C1OC(CCCC2CCCCC2)(C2CCCC2)CC(O)=C1Sc1nnc(-c2ccncc2)[nH]1 (stereo not drawn) [C(30), 6-(3-Cyclohexyl-propyl)-6-cyclopentyl-4-hydroxy-3-(5-pyridin-4-yl-4H-[1,2,4]triazol-3-ylsulfanyl)-5,6-dihydro-pyran-2-one]",0.55 µM
17,"CC(C)n1c(SC2=C(O)CC(CCCC3CCCCC3)(C3CCCC3)OC2=O)nc2cc(Cl)ccc21 (stereo not drawn) [C(31), 3-(5-Chloro-1-isopropyl-1H-benzoimidazol-2-ylsulfanyl)-6-(3-cyclohexyl-propyl)-6-cyclopentyl-4-hydroxy-5,6-dihydro-pyran-2-one]",0.51 µM
18,"O=C1OC(CCCCC2CCCCC2)(C2CCCC2)CC(O)=C1Sc1nnc(-c2ccncc2)[nH]1 (stereo not drawn) [C(32), 6-(4-Cyclohexyl-butyl)-6-cyclopentyl-4-hydroxy-3-(5-pyridin-4-yl-4H-[1,2,4]triazol-3-ylsulfanyl)-5,6-dihydro-pyran-2-one]",0.27 µM
19,"COc1ccc(CCC2(C3CCCC3)CC(O)=C(Sc3nncn3C(C)(C)C)C(=O)O2)cc1Cl (stereo not drawn) [C(34), 3-[(4-tert-butyl-4H-1,2,4-triazol-3-yl)thio]-6-[2-(3-chloro-4-methoxyphenyl)ethyl]-6-cyclopentyl-4-hydroxy-5,6-dihydro-2H-pyran-2-one]",0.053 µM
20,"CCn1cnnc1SC1=C(O)CC(CCc2ccc(OC)c(Cl)c2)(C2CCCC2)OC1=O (stereo not drawn) [C(35), 6-[2-(3-chloro-4-methoxyphenyl)ethyl]-6-cyclopentyl-3-[(4-ethyl-4H-1,2,4-triazol-3-yl)thio]-4-hydroxy-5,6-dihydro-2H-pyran-2-one]",0.07 µM
21,"COc1ccc(CCC2(C3CCCC3)CC(O)=C(Sc3nncn3C(C)C)C(=O)O2)cc1Cl (stereo not drawn) [C(36), 6-[2-(3-chloro-4-methoxyphenyl)ethyl]-6-cyclopentyl-4-hydroxy-3-[(4-isopropyl-4H-1,2,4-triazol-3-yl)thio]-5,6-dihydro-2H-pyran-2-one]",0.079 µM
22,"COc1ccc(CCC2(C3CCCC3)CC(O)=C(Sc3nncn3-c3ccccc3)C(=O)O2)cc1Cl (stereo not drawn) [C(37), 6-[2-(3-chloro-4-methoxyphenyl)ethyl]-6-cyclopentyl-4-hydroxy-3-[(4-phenyl-4H-1,2,4-triazol-3-yl)thio]-5,6-dihydro-2H-pyran-2-one]",0.13 µM
23,"COc1ccc(CCC2(C3CCCC3)CC(O)=C(Sc3nnnn3C)C(=O)O2)cc1Cl (stereo not drawn) [C(38), 6-[2-(3-chloro-4-methoxyphenyl)ethyl]-6-cyclopentyl-4-hydroxy-3-[(1-methyl-1H-tetrazol-5-yl)thio]-5,6-dihydro-2H-pyran-2-one]",0.28 µM
